Reference: patent publication US20260078089A1, “BIOACTIVE PHYTOCHEMICALS IN ZIZYPHUS AND GUARANA” (Phytoquest Limited, priority 2018, published 2026)

Experiments:
N1Neu = N1Neu sialidase inhibition screen; format: biochemical; conditions: 2 mM Zanamivir; 1500 ug Zizyphus extract; 10 minute time point
Description: An initial screen of N1Neu inhibition using a variety of compounds and the commercially available sialidase (neuraminidase) inhibitor Zanamivir (which is sold in the pharmaceutical preparation “Relenza™” as a treatment for flu) was performed.
Sialidase assays were performed, reactions contained 0.1 mM MUNANA, pH 7.4 50 mM Tris, 5 mM CaCl2), 200 mM NaCl, plant extract or the control sialidase inhibitor Zanamivir at the concentrations indicated, or no putative inhibitor. N1Neu was present at 0.025 μg/ml in reactions. 50 μl of these reactions were quenched using 100 μl of 100 mM sodium carbonate buffer, pH 10.5, at 5 minutes and 10 minutes. The 10 minute time point was used to assess sialidase activity. Data shown represent the mean of one experiment, where each condition was repeated in triplicate. MU present in quenched reactions was quantified using TECAN M200 Infinite microplate reader at excitation 340 nm emission 430 nm, and expressed as the percentage of sialidase activity (MU fluorescence) relative to the no inhibitor condition.

[1] = system: sialidase of P. gingivalis homogenate; test: Sialidase activity of homogenate of P. gingivalis; format: biochemical, Porphyromonas gingivalis; conditions: 2 mM Zanamivir; 1500 μg/ml Zizyphus
Description: (§1) MU release can be used to quantify sialidase activity.
(§2) Whole bacteria or purified sialidases were exposed to MUNANA, in the presence or absence of compound 1 (Example 3) or Zizyphus fruit 50% aqueous ethanol extract containing 1% of the N-methyl-prolines.
(§3) […] Reactions were stopped at 30 seconds and 60 seconds via addition of ph 10.5 60 mM sodium carbonate buffer. Release of fluorogenic MU was quantified by measuring fluorescence emission at 450 nm, excitation 350 nm. Percentage sialidase activity was expressed as the change in fluorescence between 30 seconds and 60 seconds compared to that of a reaction without inhibitor. Reactions were carried out in triplicate.

[2] = system: sialidase of T. forsythia homogenate; test: Sialidase activity of homogenate of T. forsythia; format: biochemical, Tannerella forsythia; conditions: 2 mM Zanamivir; 1500 μg/ml Zizyphus
Description: as §1, §2, §3

Compound: CC(=O)N[C@H]1[C@H]([C@H](O)[C@H](O)CO)OC(C(=O)O)=C[C@@H]1N=C(N)N [Zanamivir]
- % inhibition (N1Neu): 100%
- % inhibition [1]: 51%
- % inhibition [2]: 22%
